Tests used:
[1] = tested on: genes Cyp1A1, Cyp1B1, IL-22, IL-10 and IDO1; format: cell-based, mice
Experimental: (§1) For these verifications, cultures were set up of mice stomachs and colons stimulated with 1 or 100 mM of IAld for 24 hours in vitro before determining the transcription of the above indicated genes by means of polymerase reaction. The histograms A-E show the activation (expressed in terms of the number of times the mRNA increases) of the genes Cyp1A1, Cyp1B1, IL-22, IL-10 and IDO1 respectively in the stomach (top diagram) and in the colon (bottom diagram) as a consequence of the stimulation. […] For comparison, also indicated are the values in the absence of stimulation with IAld. […] To assess the therapeutic effect in treating candidiasis, two experimental models were used of infection by C. albicans obtained by administration of the fungus intragastrically (by means of a tube) and intravaginally (by means of tip) respectively. To assess the therapeutic effect in treating colitis, the model used requires the administration of an irritant (dextran sodium sulphate, DDS), through the mouth. The assessment was made on mice C57BL/6 and on mice AhR^−/−, i.e., mice from which the AhR receptor had been artificially removed. The treatment with IAld lasted for 7 days.

AhR = target: T1, AhR (Mus musculus, UniProt P30561); assay: AhR-responsive luciferase reporter test of agonist activity; format: cell-based; settings: cell line H1L1.1c2, FIG. 1
T1 construct: endogenous in cells; host or cells: H1L1.1c2
Experimental: For this test, an AhR-responsive cell line was stimulated (cell line H1L1.1c2 containing a luciferase of firefly sensitive to stably transfected AhR) with IAld, indole-3-acetaldehyde (IAAld), indole-3-acetic acid (IAA) and indole-3-lactic acid (ILA). In a way well known to the technician in the field, the agonist activity was determined by means of luciferase test, and in FIG. 1 the luciferase activity of the different ligands, representative of such agonist activity, has been indicated, on the ordinate, as a percentage of the response induced by 50 nM of formylindolo[3,2-b]carbazole (FICZ) according to the ligand dose, expressed in logarithmic scale on the abscissa.

Candida albicans [2] = assay: Infection by C. albicans, fungus given intragastrically; format: in vivo, mice; settings: 18 mg/kg intragastrically daily, 7 days
Experimental: as §1

Candida albicans [3] = assay: Infection by C. albicans, fungus given intravaginally; format: in vivo, mice; settings: 18 mg/kg intragastrically daily, 7 days
Experimental: as §1

colitis = assay: Colitis model induced by dextran sodium sulphate through the mouth; format: in vivo, mice; settings: 18 mg/kg intragastrically daily, 7 days
Experimental: as §1

T1 sequence (P30561 10-805 limits assumed): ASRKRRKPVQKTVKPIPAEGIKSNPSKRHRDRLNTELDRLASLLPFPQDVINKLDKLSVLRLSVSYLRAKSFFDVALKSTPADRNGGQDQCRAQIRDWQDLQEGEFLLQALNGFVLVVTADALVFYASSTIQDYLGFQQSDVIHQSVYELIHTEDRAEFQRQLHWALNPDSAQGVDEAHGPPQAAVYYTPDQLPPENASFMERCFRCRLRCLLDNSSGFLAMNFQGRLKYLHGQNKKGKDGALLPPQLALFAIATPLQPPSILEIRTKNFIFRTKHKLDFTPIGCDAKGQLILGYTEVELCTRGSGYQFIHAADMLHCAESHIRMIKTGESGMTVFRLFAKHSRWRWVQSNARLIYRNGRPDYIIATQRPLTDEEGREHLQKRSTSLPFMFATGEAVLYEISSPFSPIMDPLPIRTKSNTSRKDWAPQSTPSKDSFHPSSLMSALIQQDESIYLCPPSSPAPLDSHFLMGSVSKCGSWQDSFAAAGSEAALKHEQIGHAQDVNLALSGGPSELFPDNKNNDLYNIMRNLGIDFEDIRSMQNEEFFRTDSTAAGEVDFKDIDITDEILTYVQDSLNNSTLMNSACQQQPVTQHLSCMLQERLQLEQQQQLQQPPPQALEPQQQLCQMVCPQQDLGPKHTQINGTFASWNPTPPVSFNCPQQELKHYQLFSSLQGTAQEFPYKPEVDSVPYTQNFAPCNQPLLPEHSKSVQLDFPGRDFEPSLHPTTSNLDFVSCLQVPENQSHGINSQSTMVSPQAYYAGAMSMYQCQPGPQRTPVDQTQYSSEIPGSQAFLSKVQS
T1 sequence (P11499 whole entry partner): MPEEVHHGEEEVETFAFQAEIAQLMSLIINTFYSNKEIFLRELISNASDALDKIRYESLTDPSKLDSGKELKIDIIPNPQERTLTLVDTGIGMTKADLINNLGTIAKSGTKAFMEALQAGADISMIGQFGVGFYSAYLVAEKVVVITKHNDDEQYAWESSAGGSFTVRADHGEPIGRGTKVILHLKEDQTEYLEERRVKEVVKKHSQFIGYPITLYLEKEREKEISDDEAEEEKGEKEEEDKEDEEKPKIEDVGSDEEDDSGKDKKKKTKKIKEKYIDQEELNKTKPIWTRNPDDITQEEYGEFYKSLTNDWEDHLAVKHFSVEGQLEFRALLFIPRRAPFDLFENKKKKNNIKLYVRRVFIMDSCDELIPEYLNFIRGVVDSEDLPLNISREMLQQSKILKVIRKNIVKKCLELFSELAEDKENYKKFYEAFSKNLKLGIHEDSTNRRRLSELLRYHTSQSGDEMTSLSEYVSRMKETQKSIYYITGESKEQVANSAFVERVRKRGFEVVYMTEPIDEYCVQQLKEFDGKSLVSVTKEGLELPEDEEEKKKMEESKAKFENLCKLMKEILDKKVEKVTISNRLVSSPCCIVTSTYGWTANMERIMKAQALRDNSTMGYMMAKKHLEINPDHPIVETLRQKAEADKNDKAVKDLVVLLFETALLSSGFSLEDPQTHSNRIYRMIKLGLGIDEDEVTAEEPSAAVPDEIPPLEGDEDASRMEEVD
T1 sequence (O08915 whole entry partner): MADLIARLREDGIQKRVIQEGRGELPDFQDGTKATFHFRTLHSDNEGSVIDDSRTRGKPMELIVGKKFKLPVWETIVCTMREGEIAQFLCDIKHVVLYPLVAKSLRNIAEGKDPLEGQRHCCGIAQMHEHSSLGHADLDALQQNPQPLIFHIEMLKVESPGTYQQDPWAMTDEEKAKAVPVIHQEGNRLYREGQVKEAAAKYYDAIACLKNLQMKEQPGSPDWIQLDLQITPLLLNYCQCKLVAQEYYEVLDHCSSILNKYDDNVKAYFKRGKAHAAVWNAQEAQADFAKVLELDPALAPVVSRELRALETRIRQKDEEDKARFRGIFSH

## O=Cc1c[nH]c2ccccc12 [IAld, IH-indole-3-carbaldehyde]
[1]
  dose dependence of gene activation: strongly dependent on the dose
AhR
  dose dependence of AhR-agonist activity: closely dependent on the dose
AhR; compared with IAAld, ILA and IAA
  AhR-agonist activity (luciferase activity as a percentage of the response induced by 50 nM FICZ): substantially comparable to that of IAAld and is superior to that of ILA and IAA
Candida albicans [2]; gastric candidiasis, mice AhR−/−
  therapeutic effect in mice AhR−/− versus C57BL/6: only to be found in mice C57BL/6 and not in mice AhR^−/−
Candida albicans [2]; mice C57BL/6, FIG. 3 diagram A
  growth of Candida albicans (CFU) at stomach level: significant reduction in growth
Candida albicans [2]; mice C57BL/6, FIG. 3 histogram B
  activation of IL-22 and IL-10 in the stomach: contemporaneous activation of IL-22 and IL-10
Candida albicans [3]; mice C57BL/6, FIG. 3 diagram C
  growth of Candida albicans (CFU) at vagina level: significant reduction in growth
Candida albicans [3]; mice C57BL/6, FIG. 3 histogram B (so in the source)
  activation of IL-22 and IL-10 in the vagina: contemporaneous activation of IL-22 and IL-10
Candida albicans [3]; vaginal candidiasis, mice AhR−/−
  therapeutic effect in mice AhR−/− versus C57BL/6: only to be found in mice C57BL/6 and not in mice AhR^−/−
colitis; colitis, mice AhR−/−
  therapeutic effect in mice AhR−/− versus C57BL/6: only to be found in mice C57BL/6 and not in mice AhR^−/−
colitis; mice C57BL/6 with colitis, FIG. 3 graph E
  percentage variation in body weight: prevention of the reduction in body weight
colitis; mice C57BL/6 with colitis, FIG. 3 photographs F
  degree of tissue inflammation (colon histopathology): improvement in the degree of tissue inflammation
colitis; mice C57BL/6 with colitis, FIG. 3 photographs G
  cells producing IL-22 (immunofluorescence): expansion of cells producing IL-22
